Patent US20080153800A1, “NOVEL CRYSTALLINE COMPOUND” (AstraZeneca AB, priority 2006, published 2008)

How the values were obtained:
[1] = Conversion of the crystalline form in aqueous media; type: physicochemical
Source text: International patent application PCT/GB2006/002471 (WO2007/007041) discloses the Agent in 2 different crystalline forms (Example 39k). […] This form will hereinafter be referred to as Form A′. The preparation of Form A is also described in the Example hereinafter.
This form of the Agent will hereinafter be referred to as Form B.

[2] = Competitive slurries of Form A and Form B in a range of solvents; type: physicochemical
Source text: Form B also has a much higher melting endotherm.

Compound	conversion to other forms in aqueous media [1]	relative stability of crystalline forms in competitive slurries [2]
CC(C)Oc1cc(Oc2cnc(C(=O)N3CCC3)cn2)cc(C(=O)Nc2cc[nH]n2)c1 [Form A, 3-{[5-(Azetidin-1-ylcarbonyl)pyrazin-2-yl]oxy}-5-[(1-methylethyl)oxy]-N-1H-pyrazol-3-ylbenzamide]	convert to the amorphous form	–
CC(C)Oc1cc(Oc2cnc(C(=O)N3CCC3)cn2)cc(C(=O)Nc2cc[nH]n2)c1 [Form B, 3-{[5-(azetidin-1-ylcarbonyl)pyrazin-2-yl]oxy}-5-[(1-methylethyl)oxy]-N-1H-pyrazol-3-ylbenzamide]	does not significantly convert to other forms	most stable form
CC(C)Oc1cc(Oc2cnc(C(=O)N3CCC3)cn2)cc(C(=O)Nc2cc[nH]n2)c1 [Form A′, 3-{[5-(azetidin-1-ylcarbonyl)pyrazin-2-yl]oxy}-5-[(1-methylethyl)oxy]-N-1H-pyrazol-3-ylbenzamide]	convert to the amorphous form	–
